Data on 15 compounds can be found in patent US8343961B2, “Substituted heterocyclic compounds” (ArQule, Inc., priority 2009, dated 2013).

The target in one assay is T1, Tec kinase (Homo sapiens, UniProt P42680).
T1 sequence (P42680 1-631): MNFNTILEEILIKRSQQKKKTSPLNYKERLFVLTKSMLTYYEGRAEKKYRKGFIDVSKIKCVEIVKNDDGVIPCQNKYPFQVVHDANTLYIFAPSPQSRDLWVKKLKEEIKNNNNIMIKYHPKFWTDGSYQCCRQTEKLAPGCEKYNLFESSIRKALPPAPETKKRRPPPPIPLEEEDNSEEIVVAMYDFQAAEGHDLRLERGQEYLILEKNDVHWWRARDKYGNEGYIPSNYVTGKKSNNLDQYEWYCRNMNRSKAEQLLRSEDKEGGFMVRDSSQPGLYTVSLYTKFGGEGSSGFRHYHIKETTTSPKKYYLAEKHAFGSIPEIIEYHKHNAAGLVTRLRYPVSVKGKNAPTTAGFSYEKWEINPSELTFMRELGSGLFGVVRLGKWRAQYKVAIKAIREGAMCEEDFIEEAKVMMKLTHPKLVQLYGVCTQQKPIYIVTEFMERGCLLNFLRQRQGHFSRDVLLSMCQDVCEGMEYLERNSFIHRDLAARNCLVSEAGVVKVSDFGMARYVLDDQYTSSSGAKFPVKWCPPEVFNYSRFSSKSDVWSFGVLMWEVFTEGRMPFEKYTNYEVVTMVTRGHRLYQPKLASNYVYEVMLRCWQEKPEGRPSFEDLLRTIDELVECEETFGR
Description: Tec Kinase Activity Assay. In kind it is biochemical. As to conditions: read-out: Tec % INH, at 30 uM. On the procedure: The disclosed compounds were assayed for their ability to inhibit the activity of Tec kinase. Nunc Maxisorb plates were coated with streptavidin by overnight incubation with 100 μL per well of 1 μg/mL Streptavidin in DPBS. Prior to the start of the experiment, the plates were washed with TBST (3×200 μL) and blocked for at least 1 hour by adding 150 μL of 5% BSA/TBST. The plates were washed with TBST (3×200 μL/well) and left dry immediately before the capture step.
The test articles and controls (Staurosporine and Sutent) were prepared using the following assay buffer @ 3× desired final concentration (50 mM Tris-HCl, 0.02 mg/mL BSA, 10 mM MgCl2, 0.1 mM Na3VO4, 1 mM EGTA, 75 μM ATP0.01% NP-40, 2 mM DTT in 10% glycerol/water). In a reaction plate were added rapidly 20 μL test article (or control) and 20 μL TEC 0.25 ng/4. The plate was incubated for 30 minutes. To the reaction plate was added 20 μL of Pyk-2.5 ng/μL. The plate was incubated at room temperature for two hours. From the reaction plate, 50 μL was transferred to the streptavidin coated plate. The capture plate was incubated at room temperature for 30 minutes then washed 6× with TBST. To the capture plate was added 100 μL/well of Cell Signaling anti-phospho tyrosine at a dilution of 1:3000 in 2% BSA/TBST. The plate was incubated for one hour at room temperature then washed 6× with TBST. To the capture plate was added 100 μL/well of Alkaline Phosphatase Tagged Goat anti Mouse Antibody at a dilution of 1:4000 in 2% BSA/TBST. The plate was incubated for one hour at room temperature then washed 6× with TBST. The fluorescent readout was initiated by the addition of 100 μL/well of Attophos reagent (6 mg/10 mL). The reading was done on the Perkin Elmer Envision system.

The subject of the next assay is PC-3. Description: MTS Cellular Assay, PC-3. The assay is classed as cell-based. The note with it: Homo sapiens, PC-3, 72 hours. As to the method: (§1) Cells were maintained at 37° C., 5% CO2 in DMEM media supplemented with 1% fetal bovine serum, penicillin/streptomycin and fungizone (Invitrogen). Cells were seeded into 96-well tissue culture plates at 3000 per well and cultured at 37° C. for 18 hours. Test compounds were dissolved and diluted to 300× in DMSO then further diluted 1:40 in DMEM before addition to cells (1:7.5 dilution). Cells were incubated with test compounds for 72 hours followed by incubation with tetrazolium compound (3-(4,5-dimethylthiazol-2-yl)-5-(3-carboxymethoxyphenyl)-2-(4-sulfophenyl)-2H-tetrazolium, inner salt; MTS) and the electron coupling reagent, phenazine methosulfate (PMS) for 4 hours. […] The ability of compounds to inhibit cell growth in this assay is correlated with the reduction of dehydrogenase enzyme activity found in metabolically active cells. The measurement of the absorbance of the formazan was assessed using an ENVISION™ (Perkin Elmer) microplate reader at 492 nm. The calculated IC50 value is the concentration of the test compound that causes a 50% decrease in the absorbance.

Another assay concerns MDA-MB-231. Description: MTS Cellular Assay, MDA-MB-231. The assay is classed as cell-based. The note with it: Homo sapiens, MDA-MB-231, 72 hours. As to the method: as §1
For another assay, the system named is KATO III. Description: MTS Cellular Assay, KATO III. As to conditions: Homo sapiens, 72 hours. In kind it is cell-based. On the procedure:
as §1

The test system of another assay is NCI-H1299. The assay is described as follows: MTS Cellular Assay, NCI-H1299. As to conditions: Homo sapiens, NCI-H1299, 72 hours. The assay is classed as cell-based. On the procedure: as §1
For the next assay, the system named is DLD-1. The assay is described as follows: MTS Cellular Assay, DLD-1. As to conditions: Homo sapiens, DLD-1, 72 hours. The assay is classed as cell-based. On the procedure:
as §1

The next assay concerns PACA-2. The assay is described as follows: MTS Cellular Assay, PACA-2. The assay is classed as cell-based. As to conditions: PACA-2, 72 hours. As to the method: as §1

Bounds are passed on as bounds.

`Nc1nc(N2CCN(Cc3ccc(Cl)c(Cl)c3)c3ccccc3C2)c2cn[nH]c2n1` [Compound 43, 4-[1-(3,4-dichlorobenzyl)-1,2,3,5-tetrahydro-4H-1,4-benzodiazepin-4-yl]-1H-pyrazolo[3,4-d]pyrimidin-6-amine]: the inhibition at 30 µM on Tec kinase was above 79%. In addition, the inhibition at 10 µM with PC-3 was below 50%; in the assay on MDA-MB-231 it was below 50%; in the assay on KATO III, below 50%; in the assay on NCI-H1299, 50 to 79%; with DLD-1, above 79%; with PACA-2, below 50%.
On to `Nc1nc(N2CCN(CCCc3cccc(Cl)c3)c3ccccc3C2)c2cn[nH]c2n1` [Compound 8, 4-{1-[3-(3-chlorophenyl)propyl]-1,2,3,5-tetrahydro-4H-1,4-benzodiazepin-4-yl}-1H-pyrazolo[3,4-d]pyrimidin-6-amine], for which the inhibition at 30 µM on Tec kinase is above 79%. Besides, the inhibition at 10 µM in the assay on PC-3 is below 50%; in the assay with MDA-MB-231 it was below 50%; in the assay with KATO III it was below 50%; with NCI-H1299, 50 to 79%; in the assay on DLD-1, above 79%; in the assay with PACA-2, below 50%.
For `Nc1nc(N2CCN(Cc3ccc(Cl)cc3Cl)c3ccccc3C2)c2cn[nH]c2n1` [Compound 32, 4-[1-(2,4-dichlorobenzyl)-1,2,3,5-tetrahydro-4H-1,4-benzodiazepin-4-yl]-1H-pyrazolo[3,4-d]pyrimidin-6-amine], the inhibition at 30 µM on Tec kinase fell in the range of 50 to 79%. Besides, the inhibition at 10 µM with PC-3 is below 50%; in the assay with MDA-MB-231 it was below 50%; in the assay with KATO III, 50 to 79%; with NCI-H1299, above 79%; in the assay on DLD-1, above 79%; with PACA-2, below 50%.
For the compound `COc1ccc(OC)c(CN2CCN(c3nc(N)nc4[nH]ncc34)Cc3ccccc32)c1` [Compound 36, 4-[1-(2,5-dimethoxybenzyl)-1,2,3,5-tetrahydro-4H-1,4-benzodiazepin-4-yl]-1H-pyrazolo[3,4-d]pyrimidin-6-amine], at Tec kinase, the inhibition at 30 µM fell in the range of 50 to 79%. Moreover, the inhibition at 10 µM in the assay on PC-3, in the assay on MDA-MB-231, in the assay with KATO III, with NCI-H1299, in the assay on DLD-1 and with PACA-2 was above 79% throughout.
For the compound `Nc1nc(N2CCN(CCCc3cccc(F)c3)c3ccccc3C2)c2nc[nH]c2n1` [Compound 39, 6-{1-[3-(3-fluorophenyl)propyl]-1,2,3,5-tetrahydro-4H-1,4-benzodiazepin-4-yl}-9H-purin-2-amine], the inhibition at 30 µM at Tec kinase is below 50%. Moreover, the inhibition at 10 µM in the assay with PC-3, in the assay with MDA-MB-231, with KATO III, with NCI-H1299, with DLD-1 and with PACA-2 was above 79% each time.
For the compound `COc1ccc(CN2CCN(c3nc(N)nc4[nH]ncc34)Cc3ccccc32)cc1OC` [Compound 28, 4-[1-(3,4-dimethoxybenzyl)-1,2,3,5-tetrahydro-4H-1,4-benzodiazepin-4-yl]-1H-pyrazolo[3,4-d]pyrimidin-6-amine], the inhibition at 30 µM on Tec kinase was 50 to 79%. For the same compound, the inhibition at 10 µM in the assay with PC-3, in the assay with MDA-MB-231, in the assay with KATO III, in the assay with NCI-H1299, in the assay on DLD-1 and in the assay with PACA-2 was above 79% each time.
For `Nc1nc(N2CCN(Cc3cccc(C(F)(F)F)c3)c3ccccc3C2)c2cn[nH]c2n1` [Compound 21, 4-{1-[3-(trifluoromethyl)benzyl]-1,2,3,5-tetrahydro-4H-1,4-benzodiazepin-4-yl}-1H-pyrazolo[3,4-d]pyrimidin-6-amine], on Tec kinase, the inhibition at 30 µM is 50 to 79%. For the same compound, the inhibition at 10 µM is above 79% with PC-3; above 79% with MDA-MB-231; above 79% in the assay with KATO III; below 50% in the assay on NCI-H1299; above 79% in the assay with DLD-1; below 50% in the assay on PACA-2.
Take `Nc1nc(N2CCN(Cc3cccc(C(F)(F)F)c3)c3ccccc3C2)c2nc[nH]c2n1` [Compound 20, 6-{1-[3-(trifluoromethyl)benzyl]-1,2,3,5-tetrahydro-4H-1,4-benzodiazepin-4-yl}-9H-purin-2-amine]: on Tec kinase, the inhibition at 30 µM was in the range of 50 to 79%.
`CC(C)(C)c1ccc(CN2CCN(c3nc(N)nc4[nH]ncc34)Cc3ccccc32)cc1` [Compound 30, 4-[1-(4-tert-butylbenzyl)-1,2,3,5-tetrahydro-4H-1,4-benzodiazepin-4-yl]-1H-pyrazolo[3,4-d]pyrimidin-6-amine]: at Tec kinase, the inhibition at 30 µM lay within 50 to 79%. The inhibition at 10 µM in the assay on PC-3 was below 50%; in the assay with MDA-MB-231, below 50%; in the assay with KATO III it was below 50%; in the assay on NCI-H1299, 50 to 79%; in the assay with DLD-1, above 79%; in the assay on PACA-2, below 50%.
For `Nc1nc(N2CCN(Cc3cccc(Cl)c3)c3ccccc3C2)c2nc[nH]c2n1` [Compound 24, 6-[1-(3-chlorobenzyl)-1,2,3,5-tetrahydro-4H-1,4-benzodiazepin-4-yl]-9H-purin-2-amine], the inhibition at 30 µM at Tec kinase lay in the range of 50 to 79%.
For the compound `Nc1nc(N2CCN(Cc3ccccc3Cl)c3ccccc3C2)c2cn[nH]c2n1` [Compound 14, 4-[1-(2-chlorobenzyl)-1,2,3,5-tetrahydro-4H-1,4-benzodiazepin-4-yl]-1H-pyrazolo[3,4-d]pyrimidin-6-amine], on Tec kinase, the inhibition at 30 µM fell in the range of 50 to 79%. For the same compound, the inhibition at 10 µM in the assay with PC-3 is above 79%; with MDA-MB-231, above 79%; in the assay on KATO III, above 79%; in the assay with NCI-H1299 it was 50 to 79%; with DLD-1, above 79%; in the assay with PACA-2, below 50%.
For `Nc1nc(N2CCN(Cc3ccc(F)c(F)c3)c3ccccc3C2)c2nc[nH]c2n1` [Compound 46, 6-[1-(3,4-difluorobenzyl)-1,2,3,5-tetrahydro-4H-1,4-benzodiazepin-4-yl]-9H-purin-2-amine], the inhibition at 30 µM at Tec kinase is below 50%.
For `COc1ccccc1CN1CCN(c2nc(N)nc3[nH]ncc23)Cc2ccccc21` [Compound 10, 4-[1-(2-methoxybenzyl)-1,2,3,5-tetrahydro-4H-1,4-benzodiazepin-4-yl]-1H-pyrazolo[3,4-d]pyrimidin-6-amine], on Tec kinase, the inhibition at 30 µM is above 79%.
As for `COc1ccc(CN2CCN(c3nc(N)nc4[nH]cnc34)Cc3ccccc32)cc1OC` [Compound 27, 6-[1-(3,4-dimethoxybenzyl)-1,2,3,5-tetrahydro-4H-1,4-benzodiazepin-4-yl]-9H-purin-2-amine], the inhibition at 30 µM on Tec kinase was 50 to 79%.
`Nc1nc(N2CCN(Cc3ccc(F)cc3F)c3ccccc3C2)c2cn[nH]c2n1` [Compound 38, 4-[1-(2,4-difluorobenzyl)-1,2,3,5-tetrahydro-4H-1,4-benzodiazepin-4-yl]-1H-pyrazolo[3,4-d]pyrimidin-6-amine]: the inhibition at 30 µM at Tec kinase was 50 to 79%.
